Assay [1] deals with MV4;11 cells. The assay can be described thus: alamarBlue cell metabolism/viability assay, MV4;11. It counts as cell-based, human. Particulars: for IC50: at least triplicate, errors are SEMs. From the text:
(§1) As described previously, MOLM14 and MV4;11 cell lines (both human AML cell lines harboring both mixed‐lineage‐leukemia (KMT2A) rearrangement and FLT3‐ITD mutations) were obtained from DSMZ (Branschweig, DEU) and ATCC (Manassas, VA), respectively (Goodis et al. [2024]; Moses et al. [2021]); MV4;11 BCL‐2 over‐expressing (OE) cells were generated via lentiviral transduction as described previously (Empty Vector AddGene #227688; BLC‐2 OE AddGene #227690) (Goodis et al. [2024]).
(§2) Cell lines were cultured in RPMI 1640 media (Cellgro, # MDT‐10‐040‐CV) containing 10% fetal bovine serum (Gemini BioProducts #100‐106) and passaged twice per week to maintain cultures in log‐phase‐growth. Upon receipt or derivation, cell lines were expanded and multiple aliquots cryopreserved in DMSO‐containing medium in the vapor phase of liquid nitrogen. Cells were genetically authenticated and confirmed to be mycoplasma‐negative before cryopreservation. Cells from a given cryopreserved aliquot were cultured for no more than 3–4 months.
(§3) AnnV/7AAD assays were assessed by flow cytometry and analyzed using FlowLogic software v8.7.
(§4) Our dual inhibitors were next evaluated in an alamarBlue^TM cell metabolism/viability assay against 3 human AML cell lines: MOLM14, MV4;11, and MV4;11 BCL‐2 overexpressing (OE). […] However, pleasingly, several of our top compounds based on the cell‐free assay results also performed well in the AML cell‐based metabolism/viability assays.

A further assay deals with T1, HDAC6 (Homo sapiens, UniProt Q9UBN7).
T1 sequence (Q9UBN7 1-1215): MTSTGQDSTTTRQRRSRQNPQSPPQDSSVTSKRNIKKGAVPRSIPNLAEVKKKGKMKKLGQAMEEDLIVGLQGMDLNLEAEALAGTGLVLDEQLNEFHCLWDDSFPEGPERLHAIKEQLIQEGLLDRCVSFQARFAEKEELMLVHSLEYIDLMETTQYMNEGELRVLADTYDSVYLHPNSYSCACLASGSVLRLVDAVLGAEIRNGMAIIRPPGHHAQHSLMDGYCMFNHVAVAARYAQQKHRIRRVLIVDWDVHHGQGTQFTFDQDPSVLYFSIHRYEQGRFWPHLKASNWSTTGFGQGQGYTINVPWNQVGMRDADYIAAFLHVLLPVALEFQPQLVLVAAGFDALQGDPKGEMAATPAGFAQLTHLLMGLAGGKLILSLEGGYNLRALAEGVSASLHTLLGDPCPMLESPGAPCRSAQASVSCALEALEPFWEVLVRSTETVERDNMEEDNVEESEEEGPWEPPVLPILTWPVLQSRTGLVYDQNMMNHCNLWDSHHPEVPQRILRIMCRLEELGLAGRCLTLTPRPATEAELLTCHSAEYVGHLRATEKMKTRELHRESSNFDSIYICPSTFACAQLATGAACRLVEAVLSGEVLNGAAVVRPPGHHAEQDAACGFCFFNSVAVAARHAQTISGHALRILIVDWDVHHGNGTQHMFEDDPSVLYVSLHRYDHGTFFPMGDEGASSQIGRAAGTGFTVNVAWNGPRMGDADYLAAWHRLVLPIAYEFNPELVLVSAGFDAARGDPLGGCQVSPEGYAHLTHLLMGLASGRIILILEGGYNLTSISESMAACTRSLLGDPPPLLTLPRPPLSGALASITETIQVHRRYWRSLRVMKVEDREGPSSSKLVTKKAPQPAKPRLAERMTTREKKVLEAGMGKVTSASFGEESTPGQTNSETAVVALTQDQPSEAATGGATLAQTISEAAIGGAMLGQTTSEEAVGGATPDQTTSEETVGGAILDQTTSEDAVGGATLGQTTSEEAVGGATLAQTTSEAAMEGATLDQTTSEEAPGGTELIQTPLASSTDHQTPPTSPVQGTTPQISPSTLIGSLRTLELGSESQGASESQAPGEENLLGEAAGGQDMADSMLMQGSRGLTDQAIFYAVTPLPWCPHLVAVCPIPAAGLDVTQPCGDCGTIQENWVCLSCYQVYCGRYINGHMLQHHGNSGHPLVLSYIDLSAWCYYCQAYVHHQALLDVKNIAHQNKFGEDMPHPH
The assay can be described thus: HDAC6 fluorogenic assay (BPS Bioscience 50076, run by Nanosyn). The conditions noted are these: for selectivity for HDAC6 over HDAC1 (HDAC6/1 selectivity): ratio of IC50 values.

Another assay deals with T2, HDAC1 (Homo sapiens, UniProt Q13547).
T2 construct: purchased BPS Bioscience (assay run by Nanosyn) 50061
The assay can be described thus: HDAC1 fluorogenic assay (BPS Bioscience 50061, run by Nanosyn). In kind it is biochemical. The conditions noted are these: for IC50: cell‐free fluorogenic assay, duplicate, errors are SEMs.

For assay [2], the system named is MV4;11 cells. Put plainly: Annexin V/7AAD apoptosis/death assay by flow cytometry. It counts as cell-based, human. The conditions noted are these: 200 nM; for viability at 0.2 µM: Homo sapiens, 48 h, MV4;11, in Figure 2, read-out: viable cells (AnnV‐/7AAD‐), lower left quadrant. As to the method:
as §3
Figure 2 Apoptotic cell death of MV4;11 AML cells. […] As a negative control, an equi‐volume of DMSO‐treated sample was also assessed. Flow cytometric dot plots of 200 nM‐treated MV4;11 cells stained with Annexin‐V and 7AAD depict the gating strategy used to delineate viable cells (AnnV‐/7AAD‐), early apoptotic cells (AnnV+/7AAD‐), and late apoptotic cells (AnnV+/7AAD +).
(In general: Flow cytometry measures light scatter and fluorescence of single cells or particles in a stream.)

Assay [3] has as its system MV4;11 BCL‐2 over‐expressing (OE) cells. The assay can be described thus: alamarBlue cell metabolism/viability assay, MV4;11 BCL‐2 OE. In kind it is cell-based. Particulars: Homo sapiens.
From the text: as §1, §2, §3, §4
(In general: Alamar Blue is a resazurin reagent that responds to reducing activity.)

In the next assay the target is T3, BCL‐2 (Homo sapiens, UniProt P10415).
T3 construct: purchased BPS Bioscience (assay run by Nanosyn) 50222
Put plainly: BCL‐2 TR‐FRET assay (BPS Bioscience 50222, run by Nanosyn). It counts as binding. Particulars: cell‐free TR‐FRET assay, duplicate, errors are SEMs.

The next assay concerns MOLM14 cells. The assay can be described thus: alamarBlue cell metabolism/viability assay, MOLM14. It counts as cell-based. Particulars: Homo sapiens.
From the text: as §1, §2, §3, §4

[4] abbreviates: Homo sapiens, MV4-11, alamarBlue.
Where [5] appears, read: MV4-11, alamarBlue, at least triplicate, errors are SEMs, read-out: IC50 MV4;11 BCL‐2 OE.
Setting [6] is: MOLM-14, at least triplicate, errors are SEMs, read-out: IC50 MOLM‐14.

Values joined by “and” are separate entries in the source; they are usually repeats but may differ in a detail not shown here. Equal entries are not always repeated. Where two headings read alike, the source gives them in different places.

The term IC50 denotes the concentration that inhibits the measured activity by half.

T2 sequence (Q13547 whole entry): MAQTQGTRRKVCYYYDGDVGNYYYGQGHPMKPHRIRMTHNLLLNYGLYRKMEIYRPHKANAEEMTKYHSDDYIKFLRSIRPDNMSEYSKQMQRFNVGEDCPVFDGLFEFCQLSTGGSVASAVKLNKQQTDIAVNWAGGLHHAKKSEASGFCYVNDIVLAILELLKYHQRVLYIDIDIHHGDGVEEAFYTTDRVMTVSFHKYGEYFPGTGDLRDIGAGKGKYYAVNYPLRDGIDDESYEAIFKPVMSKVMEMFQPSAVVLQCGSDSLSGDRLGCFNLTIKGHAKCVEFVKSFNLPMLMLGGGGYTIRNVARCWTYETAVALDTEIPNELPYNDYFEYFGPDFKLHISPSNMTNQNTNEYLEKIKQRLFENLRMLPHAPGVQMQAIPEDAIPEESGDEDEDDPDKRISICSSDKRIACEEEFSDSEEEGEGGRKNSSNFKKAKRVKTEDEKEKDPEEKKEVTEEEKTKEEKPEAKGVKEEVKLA
T3 sequence (P10415 whole entry): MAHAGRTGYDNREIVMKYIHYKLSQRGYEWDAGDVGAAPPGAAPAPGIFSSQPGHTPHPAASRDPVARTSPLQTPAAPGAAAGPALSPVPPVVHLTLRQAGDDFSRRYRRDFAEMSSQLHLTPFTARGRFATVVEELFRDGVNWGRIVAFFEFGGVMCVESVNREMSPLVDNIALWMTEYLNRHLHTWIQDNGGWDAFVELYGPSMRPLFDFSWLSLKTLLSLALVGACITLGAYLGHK

In the case of `CC1(C)CCC(CN2CCN(c3ccc(C(=O)NS(=O)(=O)c4ccc(NCCNC(=O)c5ccc(C(=O)NO)cc5)c([N+](=O)[O-])c4)c(Oc4cnc5[nH]ccc5c4)c3)CC2)=C(c2ccc(Cl)cc2)C1` [SF‐8‐083, N ^1‐(2‐((4‐(N‐(2‐((1H‐pyrrolo[2,3‐b]pyridin‐5‐yl)oxy)‐4‐(4‐((4′‐chloro‐5,5‐dimethyl‐3,4,5,6‐tetrahydro‐[1,1′‐biphenyl]‐2‐yl)methyl)piperazin‐1‐yl)benzoyl)sulfamoyl)‐2‐nitrophenyl)amino)ethyl)‐N ^4‐hydroxyterephthalamide], the IC50 is > 10000 nM with MV4;11 cells [1] (setting [4]), 418 ± 34 nM against HDAC6 and 11600 ± 1760 nM on HDAC1. The “selectivity for HDAC6 over HDAC1 (HDAC6/1 selectivity)” value (“selectivity for HDAC6 over HDAC1” for short) at HDAC6 was ~ 30 fold.

As to `CC1(C)CCC(CN2CCN(c3ccc(C(=O)NS(=O)(=O)c4ccc(NCc5ccc(C(=O)Nc6ccccc6N)cc5)c([N+](=O)[O-])c4)c(Oc4cnc5[nH]ccc5c4)c3)CC2)=C(c2ccc(Cl)cc2)C1` [BD‐4‐213, 2‐((1H‐pyrrolo[2,3‐b]pyridin‐5‐yl)oxy)‐N‐((4‐((4‐((2‐aminophenyl)carbamoyl)benzyl)amino)‐3‐nitrophenyl)sulfonyl)‐4‐(4‐((4′‐chloro‐5,5‐dimethyl‐3,4,5,6‐tetrahydro‐[1,1′‐biphenyl]‐2‐yl)methyl)piperazin‐1‐yl)benzamide], the half-maximal inhibitory concentration (IC50) with MV4;11 cells [1] (setting [4]) is 19.3 ± 5.6 nM; against HDAC6 it was > 30000 nM; in assay [3] (setting [5]), 342 ± 55 nM; on BCL‐2 it was < 1 nM and 0.539 nM; against HDAC1 it was 2880 ± 570 nM; with MOLM14 cells (setting [6]), 1630 ± 36 nM. Moreover, in the assay on MV4;11 cells [2] (MV4;11), the “induction of apoptosis compared with venetoclax” value is reported as “induced apoptosis similar to venetoclax”. Besides, the viability at 0.2 µM with MV4;11 cells [2] came out at 43.9%. For the same molecule, the “selectivity for HDAC1 over HDAC6” value at HDAC1 (ratio of IC50 values) is recorded as > 10 fold.

Regarding `CC1(C)CCC(CN2CCN(c3ccc(C(=O)NS(=O)(=O)c4ccc(NCC5CCN(c6ccc(C(=O)NO)cc6)CC5)c([N+](=O)[O-])c4)c(Oc4cnc5[nH]ccc5c4)c3)CC2)=C(c2ccc(Cl)cc2)C1` [AMC‐4‐154, 2‐((1H‐pyrrolo[2,3‐b]pyridin‐5‐yl)oxy)‐4‐(4‐((4′‐chloro‐5,5‐dimethyl‐3,4,5,6‐tetrahydro‐[1,1′‐biphenyl]‐2‐yl)methyl)piperazin‐1‐yl)‐N‐((4‐(((1‐(4‐(hydroxycarbamoyl)phenyl)piperidin‐4‐yl)methyl)amino)‐3‐nitrophenyl)sulfonyl)benzamide], the IC50 is 66.2 ± 13.6 nM with MV4;11 cells [1] (setting [4]); 8710 ± 1890 nM against HDAC6; 631 ± 50 nM in assay [3] (setting [5]); 0.554 ± 0.045 nM against BCL‐2; > 30000 nM against HDAC1; > 10000 nM with MOLM14 cells (setting [6]). The “selectivity for HDAC6 over HDAC1” value on HDAC6 was > 3 fold. In the assay with MV4;11 cells [2] (MV4;11), the “induction of apoptosis compared with venetoclax” value is on record as “induced apoptosis similar to venetoclax”. The viability at 0.2 µM in the assay on MV4;11 cells [2] turned out to be 49.2%.

For the molecule `CC1(C)CCC(CN2CCN(c3ccc(C(=O)NS(=O)(=O)c4ccc(NCCNc5ncc(C(=O)NO)cn5)c([N+](=O)[O-])c4)c(Oc4cnc5[nH]ccc5c4)c3)CC2)=C(c2ccc(Cl)cc2)C1` [BD‐4‐208, 2‐((2‐((4‐(N‐(2‐((1H‐pyrrolo[2,3‐b]pyridin‐5‐yl)oxy)‐4‐(4‐((4′‐chloro‐5,5‐dimethyl‐3,4,5,6‐tetrahydro‐[1,1′‐biphenyl]‐2‐yl)methyl)piperazin‐1‐yl)benzoyl)sulfamoyl)‐2‐nitrophenyl)amino)ethyl)amino)‐N‐hydroxypyrimidine‐5‐carboxamide], the IC50 in the assay with MV4;11 cells [1] (setting [4]) is > 10000 nM; on HDAC6, 149 ± 20 nM; against HDAC1, 463 ± 60 nM. Besides, on HDAC6, the “selectivity for HDAC6 over HDAC1” value was ~ 3 fold.

On to `CC1(C)CCC(CN2CCN(c3ccc(C(=O)NS(=O)(=O)c4ccc(NCC5CCOCC5)c([N+](=O)[O-])c4)c(Oc4cnc5[nH]ccc5c4)c3)CC2)=C(c2ccc(Cl)cc2)C1` [Venetoclax, venetoclax, reference compound], for which the concentration for half-maximal inhibition (IC50) with MV4;11 cells [1] (setting [4]) is 82 nM; with MV4;11 cells [1] (alamarBlue), 82.8 ± 16.7 nM; against HDAC6, > 30000 nM; in assay [3] (setting [5]) it was 1020 ± 177 nM; in assay [3] (MV4-11, alamarBlue, read-out: IC50 MV4;11 OE BCL‐2 cell line), 1000 nM; at HDAC1 it was > 30000 nM. Moreover, the 50% inhibitory concentration (IC50) amounted to 1720 ± 59 nM in the assay with MOLM14 cells (setting [6]) and 1700 nM in the assay on MOLM14 cells (MOLM-14, read-out: IC50 MOLM14 cells). In the assay on MV4;11 cells [2] (MV4;11), the “decrease in % AnnV‐/7AAD‐ (viable) cells” value is reported as ~ 50%. Further, in the assay with MV4;11 cells [2], the viability at 0.2 µM turned out to be 49.4%.

Turning to `CC1(C)CCC(CN2CCN(c3ccc(C(=O)NS(=O)(=O)c4ccc(NCc5ccc(C(=O)NO)cc5)c([N+](=O)[O-])c4)c(Oc4cnc5[nH]ccc5c4)c3)CC2)=C(c2ccc(Cl)cc2)C1` [SF‐8‐038, 2‐((1H‐pyrrolo[2,3‐b]pyridin‐5‐yl)oxy)‐4‐(4‐((4′‐chloro‐5,5‐dimethyl‐3,4,5,6‐tetrahydro‐[1,1′‐biphenyl]‐2‐yl)methyl)piperazin‐1‐yl)‐N‐((4‐((4‐(hydroxycarbamoyl)benzyl)amino)‐3‐nitrophenyl)sulfonyl)benzamide], the 50% inhibitory concentration (IC50) with MV4;11 cells [1] (setting [4]) was 285 ± 81 nM; on HDAC6 it was 368 ± 85 nM; in assay [3] (setting [5]) it was 2450 ± 96 nM; at BCL‐2, < 1 nM and 0.617 nM; against HDAC1, > 30000 nM; in the assay on MOLM14 cells (setting [6]), > 10000 nM. For the same molecule, the “fold less active than venetoclax, MV4;11 cell metabolism/viability” value with MV4;11 cells [1] (IC50 compared with venetoclax) is recorded as ~ 3 fold. At HDAC6, the “selectivity for HDAC6 over HDAC1” value is given as > 80 fold. Also, the “induction of apoptosis compared with venetoclax” value in the assay with MV4;11 cells [2] (MV4;11) is reported as “somewhat less potent”. Also, the viability at 0.2 µM with MV4;11 cells [2] was determined as 58.5%.

For `CC1(C)CCC(CN2CCN(c3ccc(C(=O)NS(=O)(=O)c4ccc(NCCNC(=O)c5ccc(/C=C/C(=O)NO)cc5)c([N+](=O)[O-])c4)c(Oc4cnc5[nH]ccc5c4)c3)CC2)=C(c2ccc(Cl)cc2)C1` [SF‐8‐062, (E)‐2‐((1H‐pyrrolo[2,3‐b]pyridin‐5‐yl)oxy)‐4‐(4‐((4′‐chloro‐5,5‐dimethyl‐3,4,5,6‐tetrahydro‐[1,1′‐biphenyl]‐2‐yl)methyl)piperazin‐1‐yl)‐N‐((4‐((2‐(4‐(3‐(hydroxyamino)‐3‐oxoprop‐1‐en‐1‐yl)benzamido)ethyl)amino)‐3‐nitrophenyl)sulfonyl)benzamide], the half-inhibitory concentration (IC50) was > 10000 nM in the assay on MV4;11 cells [1] (setting [4]) and 6140 ± 1240 nM against HDAC1. Besides, the “selectivity for HDAC6 over HDAC1” value on HDAC6 is recorded as “about 20 fold”.
